Results reported in US4861865A, “Novel antithrombin peptide” (Washington University, priority 1989, dated 1989).

Biological target: T1, human thrombin (Homo sapiens, UniProt P00734)
T1 construct: human thrombin, bovine thrombin, and Ancrod; purchased Sigma Chemical
Assay: Fibrinogen clotting assay (fibrometer) with thrombin
Type: biochemical
Settings: final concentration of 10 U/ml
Protocol: Fibrinogen clotting times (S=seconds) in the presence of varying concentrations (μM) of the peptide were determined with a fibrometer following addition of thrombin. Each concentration of peptide was assayed in triplicate. Error bars indicate standard deviations.
All reagents were equilibrated to 37° C. before mixing.

- effect on clotting time: no effect on clotting time
Substance: Heparin
